In series [1] the test system is non-tumorigenic human MCF10A mammary epithelial cells. The series is described as follows: Viability of non-tumorigenic mammary epithelial cells. In kind it is cell-based. The settings on record: similar treatment doses; 24 h.
A further series has as its target FLT1 (VEGFR1) (Homo sapiens, UniProt P17948). As to the kind of experiment: SelectScreen Kinase Profiling. The series is classed as biochemical. The settings on record: read-out: Mean inhibition at 10 μM of HVS (%). How it is done:
(§1) HVS was evaluated against a cross-section of tyrosine kinases (TKs), which are known to be structurally related and oncogenically relevant to c-Met, in order to understand its selectivity profile. A panel of 15 TKs was selected for biochemical analysis through the SelectScreen Kinase Profiling Service (Invitrogen, CA). In this assay, the results are expressed as % inhibition at a 10 μM dose (see Table I below).
(§2) Table I (Above) HVS was evaluated against a cross-section of tyrosine kinases (TKs), which are known to be structurally related and oncogenically relevant to c-Met, in order to understand its selectivity profile (Table 1). A panel of 15 TKs was selected for biochemical analysis through the SelectScreen Kinase Profiling Service (Invitrogen, CA). In this assay, the results are expressed as % inhibition at a 10 μM dose (Table 1).

The target in the next series is KDR (VEGFR2) (Homo sapiens, UniProt P35968). The series is described as follows: SelectScreen Kinase Profiling. In kind it is biochemical. The following applies: read-out: Mean inhibition at 10 μM of HVS (%). As to the method:
as §1, §2

A further series has as its target FGFR1 (Homo sapiens, UniProt P11362). As to the kind of experiment: SelectScreen Kinase Profiling. The following applies: read-out: Mean inhibition at 10 μM of HVS (%). In kind it is biochemical. How it is done: as §1, §2
The next series addresses IGF1R (Homo sapiens, UniProt P08069). The series is described as follows: SelectScreen Kinase Profiling. In kind it is biochemical. As to the method:
as §1, §2

Another series addresses ROS1 (Homo sapiens, UniProt P08922). The series is described as follows: SelectScreen Kinase Profiling. The series is classed as biochemical. The following applies: read-out: Mean inhibition at 10 μM of HVS (%). How it is done:
as §1, §2

The target in another series is KIT (Homo sapiens, UniProt P10721). The series is described as follows: SelectScreen Kinase Profiling. In kind it is biochemical. The settings on record: read-out: Mean inhibition at 10 μM of HVS (%). As to the method:
as §1, §2

Another series concerns the target HER2 (ERbB2) (Homo sapiens, UniProt P04626). The series is described as follows: SelectScreen Kinase Profiling. The series is classed as biochemical. The following applies: read-out: Mean inhibition at 10 μM of HVS (%). How it is done: as §1, §2
The next series concerns the target HER4 (ERbB4) (Homo sapiens, UniProt Q15303). As to the kind of experiment: SelectScreen Kinase Profiling. In kind it is biochemical. The following applies: read-out: Mean inhibition at 10 μM of HVS (%). As to the method: as §1, §2
A further series has as its target EGFR (ERbB1) (Homo sapiens, UniProt P00533). The series is described as follows: SelectScreen Kinase Profiling. The settings on record: read-out: Mean inhibition at 10 μM of HVS (%). In kind it is biochemical. How it is done:
as §1, §2

The next series concerns the target PDGFRβ (Homo sapiens, UniProt P09619). The series is described as follows: SelectScreen Kinase Profiling. The series is classed as biochemical. The settings on record: read-out: Mean inhibition at 10 μM of HVS (%). How it is done: as §1, §2
The next series addresses ALK (Homo sapiens, UniProt Q9UM73). As to the kind of experiment: SelectScreen Kinase Profiling. The following applies: read-out: Mean inhibition at 10 μM of HVS (%). The series is classed as biochemical. As to the method: as §1, §2
Series [2] deals with MDA-MB-231/GFP human breast cancer cells. The series is described as follows: Orthotopic breast cancer xenograft in athymic nude mice. In kind it is in vivo. The settings on record: 10 mg/kg ip, 3×/week; end of study.
Method: Treatment regimens were administered 3×/week, starting 5 days postinoculation. (A) Left panel; tumor volume was evaluated periodically during treatment at the indicated days postinoculation. Tumor volume (V) was calculated by V=(L×W^2)/2, where L was the length and W was the width of tumors. Points, the mean of tumor volume in mm^3 of several tumors (n=5) during the course of the treatment period; bars±SEM. *P<0.05 as compared to vehicle-treated control. Right panel; shown are two mice harboring human breast cancer. […] Error bars indicate SEM for n=5. (C) Left panel; vertical bars indicate mean tumor weight at the end of the experiment.*P<0.05 as compared to the vehicle-treated control. Error bars indicate SEM for n=5.
Breast tumor growth was compared between animals dosed ip with 10 mg/kg of HVS (n=5), 3×/week, starting on the 5th day post-inoculation and continuing for 4 weeks, vs. non-treated animals in a control group (DMSO). Tumor progression was followed by direct measurement of tumor volume starting 14 days after orthotopic cell inoculation.
The subject of series [3] is MDA-MB-231 breast cancer cells. The series is described as follows: Western blot of c-Met downstream mitogenic and FAK/Brk/paxillin/Rac1 signaling. The series is classed as cell-based, human. As to the method:
FIG. 5. Effects of HVS treatment on c-Met downstream mitogenic and FAK/Brk/paxillin/Rac1 signaling pathways in human MDA-MB-231 breast cancer cells after a treatment period of 72 h. (A) Western Blot analysis showing HVS treatment effects on c-Met downstream mitogenic signaling molecules, Akt and MAPK, using different treatment doses, compared to the vehicle-treated control group. (B) Western Blot analysis showing HVS treatment effects on FAK/Brk/Paxillin/Rac1 signaling pathway using different treatment doses, compared to the vehicle-treated control group. The visualization of β-tubulin was used as a loading control. Representative Western Blots from each experiment are shown, N=3.
On the other hand, HVS had little or no effects on the total levels of FAK, Brk, paxillin, and Rac1 in treated cells. Exposure to antiproliferative concentrations of 8 blocked HGF-induced phosphorylation and activation of Akt and MAPK in MDA-MB-231 mammary cancer cells (FIG. 5). Activation of c-Met prevents apoptosis and maintains cancer cell survival through activation of PI3K and subsequent Akt-NFκB activation.

In series [4] the test system is MDA-MB-231 human breast cancer cells. As to the kind of experiment: Wound healing assay, HGF-induced migration. In kind it is cell-based. The settings on record: wound closure at 24 h. How it is done:
FIG. 6. (A) Effect of HVS on HGF-induced migration of the highly metastatic MDA-MB-231 human breast cancer cells in wound healing assay. […] Vertical bars indicate the percentage of wound closure at 24 h after wounding, calculated relative to the wound distance at zero time±SEM of N=6 in each treatment group. SU11274 and (−)-oleocanthal were used as positive controls at 10 μM. Right panel represents photomicrographs of wound healing assay showing HVS treatment at three different concentrations (1.25, 2.5, and 5 μM) blocked the migration of MDA-MB-231 cells in response to HGF stimulation, as compared to DMSO as a vehicle control. (B) Effect of HVS on HGF-induced cell invasion of the highly aggressive MDA-MB-231 human breast cancer cells using Cultrex® BME cell invasion assay. The cells were treated with different concentrations of HVS for 24 h. Vertical bars indicate the percentage of cells invading the basement membrane at the end of treatment period±SEM of N=3 in each treatment group. (−)-Oleocanthal was used as a positive control at 20 μM dose.*P<0.05 as compared with vehicle-treated control. (C) Effect of HVS on HGF-induced scattering of the DU145 human prostate cancer cells in 2D monolayer cultures, compared to DMSO as vehicle control. Cells were treated with indicated concentrations of HVS for 30 minutes in serum-free media. […]

Another series addresses TYRO3 (RSE) (Homo sapiens, UniProt Q06418). The series is described as follows: SelectScreen Kinase Profiling. In kind it is biochemical. The following applies: read-out: Mean inhibition at 10 μM of HVS (%).

SMILES strings stand for the structures.

Sequence of IGF1R (P08069 31-1367): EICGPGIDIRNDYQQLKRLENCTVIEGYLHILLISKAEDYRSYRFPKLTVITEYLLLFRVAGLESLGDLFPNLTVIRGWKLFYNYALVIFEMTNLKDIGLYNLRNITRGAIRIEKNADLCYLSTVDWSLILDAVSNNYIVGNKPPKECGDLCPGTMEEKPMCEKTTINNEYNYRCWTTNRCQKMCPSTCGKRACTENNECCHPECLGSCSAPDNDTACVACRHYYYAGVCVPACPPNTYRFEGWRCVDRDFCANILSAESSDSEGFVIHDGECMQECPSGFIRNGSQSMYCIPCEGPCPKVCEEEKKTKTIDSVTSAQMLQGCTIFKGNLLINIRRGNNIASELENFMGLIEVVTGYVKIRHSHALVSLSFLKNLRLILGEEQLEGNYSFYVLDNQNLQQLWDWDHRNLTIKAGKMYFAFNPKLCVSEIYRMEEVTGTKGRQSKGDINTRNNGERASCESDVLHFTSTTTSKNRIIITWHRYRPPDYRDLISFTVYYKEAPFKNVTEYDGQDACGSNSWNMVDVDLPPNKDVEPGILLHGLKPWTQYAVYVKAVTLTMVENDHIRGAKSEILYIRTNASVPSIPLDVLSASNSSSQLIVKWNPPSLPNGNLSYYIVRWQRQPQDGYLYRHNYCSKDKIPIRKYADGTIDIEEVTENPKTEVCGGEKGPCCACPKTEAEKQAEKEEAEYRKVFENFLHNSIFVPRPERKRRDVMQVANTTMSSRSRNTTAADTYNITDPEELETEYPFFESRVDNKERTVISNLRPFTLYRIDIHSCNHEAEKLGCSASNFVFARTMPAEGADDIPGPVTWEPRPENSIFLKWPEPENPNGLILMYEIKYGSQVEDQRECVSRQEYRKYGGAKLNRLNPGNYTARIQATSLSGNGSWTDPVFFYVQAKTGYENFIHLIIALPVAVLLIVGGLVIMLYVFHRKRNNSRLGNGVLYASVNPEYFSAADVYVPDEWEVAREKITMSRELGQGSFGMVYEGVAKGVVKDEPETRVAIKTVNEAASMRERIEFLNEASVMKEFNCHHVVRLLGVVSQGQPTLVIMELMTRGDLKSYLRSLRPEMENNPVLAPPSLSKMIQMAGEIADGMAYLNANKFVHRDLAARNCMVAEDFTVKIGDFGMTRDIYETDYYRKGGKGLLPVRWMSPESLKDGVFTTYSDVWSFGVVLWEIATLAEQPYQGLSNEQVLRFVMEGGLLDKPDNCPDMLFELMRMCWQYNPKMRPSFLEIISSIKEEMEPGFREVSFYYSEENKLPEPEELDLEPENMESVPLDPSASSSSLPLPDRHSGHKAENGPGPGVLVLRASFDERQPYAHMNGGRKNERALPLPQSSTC
Sequence of KIT (P10721 26-976): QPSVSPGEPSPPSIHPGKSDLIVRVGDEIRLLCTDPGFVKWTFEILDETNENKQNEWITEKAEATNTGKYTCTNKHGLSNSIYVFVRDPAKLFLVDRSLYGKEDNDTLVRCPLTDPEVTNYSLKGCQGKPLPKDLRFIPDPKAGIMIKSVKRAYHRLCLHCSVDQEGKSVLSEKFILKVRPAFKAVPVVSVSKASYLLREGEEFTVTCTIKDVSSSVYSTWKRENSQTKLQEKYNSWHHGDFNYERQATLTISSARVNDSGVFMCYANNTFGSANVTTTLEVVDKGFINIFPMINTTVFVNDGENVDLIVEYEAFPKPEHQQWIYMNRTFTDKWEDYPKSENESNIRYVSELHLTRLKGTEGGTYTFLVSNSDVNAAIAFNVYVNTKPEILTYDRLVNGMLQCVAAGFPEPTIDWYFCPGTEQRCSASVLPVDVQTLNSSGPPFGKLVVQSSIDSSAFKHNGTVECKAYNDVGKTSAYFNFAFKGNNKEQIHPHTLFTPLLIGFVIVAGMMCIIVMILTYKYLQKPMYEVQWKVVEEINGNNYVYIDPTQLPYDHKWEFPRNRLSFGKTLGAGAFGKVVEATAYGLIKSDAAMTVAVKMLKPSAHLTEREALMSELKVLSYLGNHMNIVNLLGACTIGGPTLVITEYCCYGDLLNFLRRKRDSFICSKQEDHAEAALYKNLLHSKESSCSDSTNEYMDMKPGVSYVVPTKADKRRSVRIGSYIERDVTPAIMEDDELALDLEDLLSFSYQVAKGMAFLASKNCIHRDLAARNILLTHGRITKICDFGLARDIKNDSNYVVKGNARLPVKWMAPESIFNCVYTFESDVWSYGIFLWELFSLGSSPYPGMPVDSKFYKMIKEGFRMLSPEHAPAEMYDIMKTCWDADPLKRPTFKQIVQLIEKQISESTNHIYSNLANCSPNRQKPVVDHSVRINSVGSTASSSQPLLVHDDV
Sequence of TYRO3 (RSE) (Q06418 41-890): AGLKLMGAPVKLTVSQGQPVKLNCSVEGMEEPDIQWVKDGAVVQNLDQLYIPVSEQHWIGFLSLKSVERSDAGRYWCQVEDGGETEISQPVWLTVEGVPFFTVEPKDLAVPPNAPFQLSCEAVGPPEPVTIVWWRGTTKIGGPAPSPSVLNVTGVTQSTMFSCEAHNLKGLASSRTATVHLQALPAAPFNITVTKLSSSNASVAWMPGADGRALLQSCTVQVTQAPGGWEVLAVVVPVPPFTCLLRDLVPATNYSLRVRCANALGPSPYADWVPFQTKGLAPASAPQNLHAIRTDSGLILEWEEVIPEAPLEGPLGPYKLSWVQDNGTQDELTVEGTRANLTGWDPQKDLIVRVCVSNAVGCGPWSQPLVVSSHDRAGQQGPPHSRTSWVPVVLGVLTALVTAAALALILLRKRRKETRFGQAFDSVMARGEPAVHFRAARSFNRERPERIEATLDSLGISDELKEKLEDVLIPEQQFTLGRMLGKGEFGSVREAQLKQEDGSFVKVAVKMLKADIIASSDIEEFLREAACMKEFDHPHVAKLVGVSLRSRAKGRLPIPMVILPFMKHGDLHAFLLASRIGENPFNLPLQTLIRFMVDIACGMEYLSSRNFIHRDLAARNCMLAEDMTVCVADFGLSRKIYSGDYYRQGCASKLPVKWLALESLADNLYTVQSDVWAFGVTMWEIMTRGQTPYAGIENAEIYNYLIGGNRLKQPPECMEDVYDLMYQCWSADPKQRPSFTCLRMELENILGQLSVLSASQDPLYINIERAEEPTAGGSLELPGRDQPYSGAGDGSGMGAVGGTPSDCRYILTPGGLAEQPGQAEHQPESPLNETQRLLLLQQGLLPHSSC
Sequence of FGFR1 (P11362 22-822): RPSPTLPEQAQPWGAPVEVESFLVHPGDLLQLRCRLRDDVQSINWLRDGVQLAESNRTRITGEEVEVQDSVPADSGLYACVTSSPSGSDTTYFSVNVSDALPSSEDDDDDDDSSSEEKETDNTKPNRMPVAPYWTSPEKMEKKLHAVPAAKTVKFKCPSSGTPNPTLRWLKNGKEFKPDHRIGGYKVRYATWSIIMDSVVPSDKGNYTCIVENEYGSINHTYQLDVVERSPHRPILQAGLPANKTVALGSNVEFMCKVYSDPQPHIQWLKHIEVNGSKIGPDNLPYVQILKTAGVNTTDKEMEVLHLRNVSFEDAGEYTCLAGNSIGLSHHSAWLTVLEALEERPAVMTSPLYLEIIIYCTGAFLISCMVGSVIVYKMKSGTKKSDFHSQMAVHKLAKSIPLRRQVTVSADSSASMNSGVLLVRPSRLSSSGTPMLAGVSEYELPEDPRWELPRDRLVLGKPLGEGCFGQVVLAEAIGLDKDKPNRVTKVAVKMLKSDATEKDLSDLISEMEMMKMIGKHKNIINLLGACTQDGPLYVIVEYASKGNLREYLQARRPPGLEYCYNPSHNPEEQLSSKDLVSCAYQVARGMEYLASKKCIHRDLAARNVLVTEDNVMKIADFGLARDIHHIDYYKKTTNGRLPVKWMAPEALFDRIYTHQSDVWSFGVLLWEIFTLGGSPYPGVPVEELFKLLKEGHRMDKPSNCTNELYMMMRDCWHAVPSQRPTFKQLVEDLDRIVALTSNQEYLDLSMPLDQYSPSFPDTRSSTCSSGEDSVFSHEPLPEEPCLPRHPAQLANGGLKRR
Sequence of EGFR (ERbB1) (P00533 25-1210): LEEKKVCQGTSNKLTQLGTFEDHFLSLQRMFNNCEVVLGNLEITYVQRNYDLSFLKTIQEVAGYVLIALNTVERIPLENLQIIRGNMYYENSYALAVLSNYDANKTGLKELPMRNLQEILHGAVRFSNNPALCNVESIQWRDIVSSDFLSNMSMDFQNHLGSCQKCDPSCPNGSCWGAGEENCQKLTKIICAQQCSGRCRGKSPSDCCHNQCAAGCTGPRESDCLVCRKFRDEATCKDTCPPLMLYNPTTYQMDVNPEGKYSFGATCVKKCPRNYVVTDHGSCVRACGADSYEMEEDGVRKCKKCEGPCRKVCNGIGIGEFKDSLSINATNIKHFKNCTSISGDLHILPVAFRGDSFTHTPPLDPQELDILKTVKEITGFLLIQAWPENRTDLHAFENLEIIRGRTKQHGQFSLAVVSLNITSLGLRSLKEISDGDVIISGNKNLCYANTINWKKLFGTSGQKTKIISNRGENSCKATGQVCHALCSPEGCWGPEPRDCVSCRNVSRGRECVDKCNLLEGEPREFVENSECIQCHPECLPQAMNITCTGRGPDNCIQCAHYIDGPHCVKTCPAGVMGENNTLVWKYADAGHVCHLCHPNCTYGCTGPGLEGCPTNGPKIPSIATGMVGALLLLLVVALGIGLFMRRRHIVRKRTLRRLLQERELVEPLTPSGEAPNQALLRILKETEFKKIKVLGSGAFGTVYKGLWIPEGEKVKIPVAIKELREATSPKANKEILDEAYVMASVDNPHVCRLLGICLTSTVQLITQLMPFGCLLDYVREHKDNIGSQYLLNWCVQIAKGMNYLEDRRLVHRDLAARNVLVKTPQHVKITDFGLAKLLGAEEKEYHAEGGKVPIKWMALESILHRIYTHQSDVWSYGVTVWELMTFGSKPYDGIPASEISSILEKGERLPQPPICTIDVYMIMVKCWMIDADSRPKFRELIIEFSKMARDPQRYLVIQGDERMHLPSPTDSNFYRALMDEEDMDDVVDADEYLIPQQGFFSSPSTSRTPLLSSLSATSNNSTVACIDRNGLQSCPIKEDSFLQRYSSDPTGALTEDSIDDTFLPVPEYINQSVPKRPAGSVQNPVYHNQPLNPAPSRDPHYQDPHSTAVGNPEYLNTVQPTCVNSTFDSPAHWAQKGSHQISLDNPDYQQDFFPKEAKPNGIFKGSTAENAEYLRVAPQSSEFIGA

On to `COc1cc(CCOC(=O)/C=C/c2cc(OC)c(O)c(OC)c2)ccc1O` [Compound 8, (E)-4-hydroxy-3-methoxyph-ethyl 3-(4-hydroxy-3,5-dimethoxyphenyl) acrylate], for which, in series [1], the “effect on non-tumorigenic human MCF10A cells” value was “no discernable effects”. Besides, the inhibition at 10 µM at FLT1 (VEGFR1) is 9%; on KDR (VEGFR2), 20%; at FGFR1 it was 50%; on IGF1R (read-out: Mean inhibition at 10 μM of HVS (%)), -5%; on ROS1, 24%; on KIT it was -3%. For the same compound, the inhibition at 10 µM on HER2 (ERbB2) is 4%; on HER4 (ERbB4) it was 7%; on EGFR (ERbB1) it was 7%; on PDGFRβ it was 14%; on ALK it was 21%; on TYRO3 (RSE), 21%. Also, the “Mean inhibition at 10 μM of HVS (%)” value on IGF1R was “no observed inhibition”. In addition, the “reduction in tumor growth vs vehicle-treated control” value in series [2] is reported as 92%. Further, the “FAK, Brk, paxillin and Rac1 phosphorylation (activation)” value in series [3] (72-h treatment) is given as “dose-dependently suppressed”. The “HGF-induced phosphorylation and activation of Akt and MAPK” value in series [3] (antiproliferative concentrations) is given as “blocked”. For the same compound, the HGF-induced migration result in [4] is “appears to inhibit”.

For the origin of these results see patent US10959968B2, “Methods for treating c-Met-dependent cancers” (Board of Supervisors of Louisiana State University and …, priority 2016, dated 2021).
